Structures can show the parent of a compound that is named as a salt. Where two headings read alike, the source gives them in different places.
Key:
[1] = biological target: MCL-1 (Homo sapiens, UniProt Q07820); test: Protein-protein interaction assay MCL-1/Noxa BH3 peptide (MCL-1 assay), TR-FRET; assay type: binding; conditions: MBP-MCL-1 / Noxa BH3-derived peptide, median
Outline: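 Inhibition values were normalized between DMSO controls with all reagents and controls lacking MCL-1. The binding competition used 1 nM MBP-MCL-1 in pH 7 Tris buffer containing 50 mM KF and 100 mM NaCl, with a 10 min compound preincubation at 22 °C.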

[2] = system: SUDHL5; test: Induction of cytotoxicity (CellTiter-Glo, 5 h), SUDHL5
[3] = system: SUDHL10; test: Induction of cytotoxicity (CellTiter-Glo, 5 h), SUDHL10
[4] = system: SUDHL10; test: Induction of caspase-3/7 activity (Caspase-Glo 3/7), SUDHL10; assay type: cell-based; conditions: caspase-3/7 induction, SUDHL10 cells, 3 h treatment, median
Outline: (§1)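 Apoptosis induction measured as caspase-3/7 activity (Caspase-Glo 3/7) in DLBCL lines after 3 h treatment at 37 °C; EC50 derived relative to the reference compound's maximal induction, with C0 fixed at 1.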

[5] = system: SUDHL10; test: Anti-proliferative effect (CellTiter-Glo, 72 h), SUDHL10; assay type: cell-based; conditions: SUDHL10 cells, antiproliferation, median, read-out: Antiproli SUDHL10 [M] (median)
Description: Assessment of the Anti-Proliferative Effect of Compounds in Different Cell Lines
The impact of compounds on the proliferation of different cell lines was assessed using the CellTiter-Glo® Luminescent Cell Viability reagent from Promega (G7573). Of note, SUDHL10 and SUDHL5 (DLBCL), NCI-H929 (Multiple Myeloma), A2780 (ovarian carcinoma) as well as MV-4-11(AML) cells are sensitive to MCL-1 inhibition.
In parallel, cells were plated in a reference (day 0) plate for time zero determination.
Rim wells were excluded. The cells were incubated for 72 h hours in a humidified incubator at 37° C. The day 0 plate was measured by adding 30 μl/well of CTG solution (CellTiter-Glo® Luminescent Cell Viability reagent, Promega G7573) to time zero wells in the reference plate followed by a 10 minutes incubation and luminescence reading at 0.1 ms, using the PHERAstar FS microplate reader (BMG Labtech).
After 72 h incubation, the treated plates were measured in the same way as the day 0 plate mentioned above.

[6] = system: SUDHL5; test: Anti-proliferative effect (CellTiter-Glo, 72 h), SUDHL5; assay type: cell-based; conditions: SUDHL5 cells, antiproliferation, median, read-out: Antiproli SUDHL5 [M] (median)
Outline: (§2)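 After seeding, one plate is read right away by CellTiter-Glo luminescence to fix time zero. The treated plates stay at 37 °C in humidified air for 72 h and are then measured with the same reagent and 10 min incubation.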

[7] = system: SUDHL5; test: Induction of caspase-3/7 activity (Caspase-Glo 3/7), SUDHL5; assay type: cell-based; conditions: caspase-3/7 induction, SUDHL5 cells, 3 h treatment, median
Outline: as §1

[8] = system: A2780; test: Anti-proliferative effect (CellTiter-Glo, 72 h), A2780; assay type: cell-based; conditions: A2780 cells, median, read-out: IC50 antiproliferation assay A2780 [M] (median)
Outline: as §2

[9] = read-out: Cytotox SUDHL5 [M] (median), SUDHL5 cells, cytotoxicity induction, CellTiter-Glo, 5 h incubation, median
[10] = read-out: Cytotox SUDHL10 [M] (median), SUDHL10 cells, cytotoxicity induction, CellTiter-Glo, 5 h incubation, median
[11] = Homo sapiens, SU-DHL-5, 5 h, read-out: Cytotox SUDHL5 [M] (median), SUDHL5 cells, cytotoxicity induction, CellTiter-Glo, 5 h incubation, median
[12] = Homo sapiens, SU-DHL10, 5 h, read-out: Cytotox SUDHL10 [M] (median), SUDHL10 cells, cytotoxicity induction, CellTiter-Glo, 5 h incubation, median
[13] = Homo sapiens, SU-DHL10, 72 h, 72 h incubation
[14] = Homo sapiens, SU-DHL-5, 72 h, 72 h incubation

Chain of MCL-1 (Q07820 whole entry): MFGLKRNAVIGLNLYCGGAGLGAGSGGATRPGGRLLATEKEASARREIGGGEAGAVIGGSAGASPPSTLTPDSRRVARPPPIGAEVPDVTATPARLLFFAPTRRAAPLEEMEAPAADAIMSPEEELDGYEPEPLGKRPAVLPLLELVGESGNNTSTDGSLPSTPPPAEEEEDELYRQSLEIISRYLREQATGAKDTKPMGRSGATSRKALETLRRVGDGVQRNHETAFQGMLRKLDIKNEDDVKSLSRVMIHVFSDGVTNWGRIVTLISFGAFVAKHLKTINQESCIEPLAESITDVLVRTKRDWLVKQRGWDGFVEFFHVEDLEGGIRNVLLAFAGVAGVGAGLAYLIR

| IC50 [1] | EC50 [4] | IC50 ([5]; 72 h incubation) | IC50 ([6]; 72 h incubation) | EC50 [7] | IC50 [8] | EC50 ([4]; Homo sapiens, SU-DHL10, 3 h) | IC50 [5, 13] | IC50 [6, 14] | EC50 ([7]; Homo sapiens, SU-DHL-5, 3 h) | IC50 ([8]; Homo sapiens, A2780, 72 h) | Structure (SMILES) | IC50 [2, 9] | IC50 [3, 10] | IC50 [2, 11] | IC50 [3, 12] | further results |
| --- | --- | --- | --- | --- | --- | --- | --- | --- | --- | --- | --- | --- | --- | --- | --- | --- |
| 0.0107 µM |  |  |  |  |  | > 33 µM | 1.69e-05 M | 1.6e-05 M | 12 µM | 2.03e-05 M | COCCn1nc(C2CC2)c2c1COCCCCn1c(C(=O)O)c(CCCOc3cccc4c3CCCC4)c3cccc-2c31 (racemic) [Example 164, (rac)-3-Cyclopropyl-1-(2-methoxyethyl)-7-[3-(5,6,7,8-tetrahydronaphthalen-1-yloxy)propyl]-1,10,11,12,13,15-hexahydropyrazolo[4′,3′:9,10][1,6]oxazacycloundecino[8,7,6-hi]indole-8-carboxylic Acid] |  |  | 9.23e-06 M | 3.07e-05 M |  |
| 0.0248 µM | 18.8 µM | 1.12e-05 M | 1.87e-05 M | > 33 µM | 2.57e-05 M |  |  |  |  |  | CCc1nn(CCN2CCOCC2)c2c1-c1cccc3c(CCCOc4cccc5ccccc45)c(C(=O)O)n(c13)CCCCOC2 (single isomer, unassigned; enantiomer 2) [Example 200, 3-ethyl-1-[2-(morpholin-4-yl)ethyl]-7-[3-(naphthalen-1-yloxy)propyl]-1,10,11,12,13,15-hexahydropyrazolo[4′3′:9,10][1,6]oxazacycloundecino[8,7,6-hi]indole-carboxylic Acid (Enantiomer 2)] | 2.41e-05 M | 1.99e-05 M |  |  |  |
| 0.00233 µM |  |  |  |  |  | 8.35 µM | 7.14e-06 M | 4.45e-06 M | 2.47 µM | 1.9e-05 M | CCCc1nn(C)c2c1-c1c(C)ccc3c(CCCOc4cccc5ccccc45)c(C(=O)O)n(c13)CCCN(C)C2 (racemic) [Example 193, (rac)-7,9,12-trimethyl-1-[3-(naphthalen-1-yloxy)propyl]-1-propyl-4,5,6,7,8,9-hexahydropyrazolo[3′,4′:7,8][1,5]diazecino[9,10,1-hi]indole-2-carboxylic Acid] |  |  | 2.3e-06 M | 7.65e-06 M |  |
| 0.00373 µM |  |  |  |  |  | 3.52 µM | 4.66e-06 M | 1.17e-06 M | 1.77 µM | 1.85e-05 M | CCc1nn(C)c2c1-c1c(C)ccc3c(C(C)CCOc4cccc5cc(F)ccc45)c(C(=O)O)n(c13)CCCCOC2 (racemic) [Example 261, 3-ethyl-7-{4-[(6-fluoronaphthalen-1-yl)oxy]butan-2-yl}-1,4-dimethyl-1,10,11,12,13,15-hexahydropyrazolo[4′,3′:9,10][1,6]oxazacycloundecino[8,7,6-hi]indole-8-carboxylic Acid] |  |  | 2.02e-06 M | 3.8e-06 M |  |
| 0.325 µM |  |  |  |  |  | > 33 µM |  |  | 29.7 µM | 1.9e-05 M | Cn1nc(COC(=O)NCC(F)(F)F)c2c1COCCCCn1c(C(=O)O)c(CCCOc3cccc4ccccc34)c3cccc-2c31 (single isomer, unassigned; enantiomer 1) [Example 343, 1-methyl-7-[3-(naphthalen-1-yloxy)propyl]-3-({[(2,2,2-trifluoroethyl)carbamoyl]oxy}methyl)-1,10,11,12,13,15-hexahydropyrazolo[4′,3′:9,10][1,6]oxazacycloundecino[8,7,6-hi]indole-8-carboxylic Acid (Enantiomer 1)] |  |  |  |  | IC50 ([2]; Homo sapiens, SU-DHL-5, 5 h, read-out: Cytotox SUDHL5 [M] (median), SUDHL5 cells, cytotoxicity induction, CellTiter-Glo, 5 h, median): > 3.3e-05 M; IC50 ([3]; Homo sapiens, SU-DHL10, 5 h, read-out: Cytotox SUDHL10 [M] (median), SUDHL10 cells, cytotoxicity induction, CellTiter-Glo, 5 h, median): > 3.3e-05 M; IC50 ([5]; Homo sapiens, SU-DHL10, 72 h, 72 h): 1.11e-06 M; IC50 ([6]; Homo sapiens, SU-DHL-5, 72 h, 72 h): 1.92e-06 M |

Further lines, the compound ahead of its results:

| Structure (SMILES) | IC50 [1] | EC50 [4] | IC50 ([5]; 72 h incubation) | IC50 ([6]; 72 h incubation) | EC50 [7] | IC50 [8] | EC50 ([4]; Homo sapiens, SU-DHL10, 3 h) | IC50 [5, 13] | IC50 [6, 14] | EC50 ([7]; Homo sapiens, SU-DHL-5, 3 h) | IC50 ([8]; Homo sapiens, A2780, 72 h) | IC50 [2, 9] | IC50 [3, 10] | IC50 [2, 11] | IC50 [3, 12] | further results |
| --- | --- | --- | --- | --- | --- | --- | --- | --- | --- | --- | --- | --- | --- | --- | --- | --- |
| Cc1nn(CC(F)(F)F)c2c1-c1cccc3c(CCCOc4cccc5ccccc45)c(C(=O)O)n(c13)CCCCOC2 (single isomer, unassigned; enantiomer 2) [Example 111, 3-methyl-7-[3-(naphthalen-1-yloxy)propyl]-1-(2,2,2-trifluoroethyl)-1,10,11,12,13,15-hexahydropyrazolo[4′,3′:9,10][,6]oxazacycloundecino[8,7,6-hi]indole-8-carboxy ic acid-N-ethylethanamine Salt (Enantiomer 2)] | 0.327 µM | > 33 µM | 5.45e-06 M | > 3.3e-05 M | > 33 µM | 2.61e-05 M |  |  |  |  |  | > 3.3e-05 M | > 3.3e-05 M |  |  |  |
| COCCn1nc2c(c1C1CC1)-c1cccc3c(CCCOc4cccc5ccccc45)c(C(=O)O)n(c13)CCCCOC2 (single isomer, unassigned; enantiomer 2) [Example 086, 3-Cyclopropyl-2-(2-methoxyethyl)-7-[3-(naphthalen-1-yloxy)propyl]-2,10,11,12,13,15-hexahydropyrazolo[4′3′:9,10][1,6]oxazacycloundecino[8,7,6-hi]indole-carboxylic acid-N-ethylethanamine Salt (Enantiomer 2)] | 0.0728 µM | > 33 µM | 7e-06 M | 1.72e-05 M | > 33 µM | 1.36e-05 M |  |  |  |  |  | 3.15e-05 M | > 3.3e-05 M |  |  |  |
| COCCn1nc2c(c1C)-c1cccc3c(CCCOc4cccc5ccccc45)c(C(=O)O)n(c13)CCCCOC2 (single isomer, unassigned; enantiomer 2) [Example 108, 2-(2-methoxyethyl)-3-methyl-7-[3-(naphthalen-1-yloxy)propyl]-2,10,11,12,13,15-hexahydropyrazolo[4′,3′:9,10][1,6]oxazacycloundecino[8,7,6-hi]indole-8-carboxylic acid-N-ethylethanamine Salt (Enantiomer 2)] | 0.0543 µM | > 33 µM | 1.17e-05 M | 1.51e-05 M | > 33 µM | 1.52e-05 M |  |  |  |  |  | > 3.3e-05 M | > 3.3e-05 M |  |  |  |
| Cn1nc(CN2CC3(COC3)C2)c2c1COCCCCn1c(C(=O)O)c(CCCOc3cccc4ccccc34)c3cccc-2c31 (single isomer, unassigned; enantiomer 1) [Example 344, 1-methyl-7-[3-(naphthalen-1-yloxy)propyl]-3-(2-oxa-6-azaspiro[3.3]hept-6-ylmethyl)-1,10,11,12,13,15-hexahydropyrazolo[4′,3′:9,10][1,6]oxazacycloundecino[8,7,6-hi]indole-8-carboxylic acid-N-ethylethanamine Salt (Enantiomer 1)] | 0.433 µM | > 33 µM |  |  | > 33 µM | > 3.3e-05 M |  |  |  |  |  |  |  |  |  | IC50 ([2]; read-out: Cytotox SUDHL5 [M] (median), SUDHL5 cells, cytotoxicity induction, CellTiter-Glo, 5 h, median): > 3.3e-05 M; IC50 ([3]; read-out: Cytotox SUDHL10 [M] (median), SUDHL10 cells, cytotoxicity induction, CellTiter-Glo, 5 h, median): > 3.3e-05 M; IC50 ([5]; 72 h): 1.44e-05 M; IC50 ([6]; 72 h): 2.08e-05 M |
